The text below walks through data of patent publication US9969775B2, “CGRP antagonist peptides” (Ferring B.V., priority 2015, dated 2018).

The target in test [1] is T1, hAM2 receptor (CALCRL:RAMP3) (Homo sapiens, UniProt O60896+Q16602).
T1 construct: expressed in transfected cells; host or cells: GeneBLAzer CALCRL:RAMP3-CRE-bla Freestyle 293F
Nature of the test: AM2 receptor antagonist activity measured by cAMP assay (HTRF). The test is classed as cell-based. Particulars: for Emax: % MPE: percent of the maximal possible effect, read-out: hAM2-R Efficacy Antag (%) Ave; for Emax / pIC50: agonist human adrenomedullin; for pIC50: GeneBLAzer CALCRL:RAMP3-CRE-bla Freestyle 293F cells, read-out: hAM2-R IC50 Ave; for selectivity ratio CGRP/AM2: selectivity ratio for hCGRP over hAM2, calculated from the IC50 values.

Test [2] concerns the target T2, hCGRP receptor (CALCRL:RAMP1) (Homo sapiens, UniProt O60894+Q16602).
T2 construct: host or cells: GeneBLAzer CALCRL:RAMP1-CRE-bla Freestyle 293F
Nature of the test: CGRP receptor antagonist activity measured by cAMP assay (HTRF). The test is classed as cell-based. The conditions noted are these: agonist human α-CGRP; for Emax: % MPE: percent of the maximal possible effect, read-out: hCGRP-R Efficacy Antag (%) Ave; for pIC50: GeneBLAzer CALCRL:RAMP1-CRE-bla Freestyle 293F cells, 30 minutes, read-out: hCGRP-R IC50 Ave. As to the method:
Example 6: CGRP Receptor Antagonist Activity Measured by cAMP Assay
CGRP receptor agonists increase intracellular cyclic adenosine mono-phosphate (cAMP). CGRP receptor antagonists can reduce the agonist effect. Antagonist activity was assessed by measurement of cyclic adenosine mono-phosphate (cAMP) using cell line stably expressing the hCGRP receptor (GeneBLAzer® CALCRL:RAMP1-CRE-bla Freestyle™ 293F, Invitrogen). hCGRP receptor expressing cells were maintained in DMEM high-glucose with GlutaMAX™ containing 10% (v/v) FBS, 0.1 mM NEAA, 25 mM HEPES, 5 ug/ml Blasticidin, 100 ug/ml Hygromycin, and 400 ug/ml Geneticin at 37° C. under 5% CO2 in a humidified atmosphere. For cAMP measurement, cells were washed once with 5 ml 1×PBS, cell maintenance media was replaced with compound buffer ((CB): DMEM containing 0.1% BSA and 0.5 mM IBMX), and flasks were incubated for 1 hour at 37° C. under 5% CO2 in a humidified atmosphere. Cells were removed from culture flasks using non-enzymatic cell dissociation buffer and harvested in CB. The reaction was performed in 384 well white small volume plates (Greiner) at a density of 10,000 cells/well. Cells were exposed to varying concentrations of antagonist compounds for 30 minutes in the presence of a fixed concentration of agonist (human α-CGRP). cAMP levels were measured using an HTRF (homogeneous time resolved fluorescence)-based competitive cAMP immunoassay (cAMP Dynamic 2 Kit, Cisbio), according to the manufacturer's instructions. […] Reported parameters include antagonist potency IC50 (the concentration causing half-maximal inhibition of the agonist response for antagonist compounds) and efficacy (% MPE: percent of the maximal possible effect).

Structures are written as SMILES. pIC50: −log10 of the molar value. Numbered stars: 1 amine (or outer) side, 2 acyl side, 3 side chain; on linkers, the order of the positions; unused ones are H or OH. Bridge positions count the residues as written; N and C are the ends. Square brackets hold non-standard residues; d marks the D form. Side chains are listed from the residue outwards. Peptide text beside a SMILES is read from it. * marks the point of attachment. Phe(3-CH2NH2) = O=C([C@H](Cc1cccc(CN[*:3])c1)N[*:1])[*:2]; Phe(3-CONH2) = NC(=O)c1cccc(C[C@H](N)C(=O)O)c1; X16 = CCN(CC)CC[C@H](N[*:1])C(=O)[*:2]; Dab(iPr) = CC(C)NCC[C@H](N)C(=O)O; Benzoyl(4-F) = O=C(c1ccc(F)cc1)*; Oxazole2carbonyl = O=C(c1ncco1)*; 3Pal = N[C@@H](Cc1cccnc1)C(=O)O; Picolinoyl = O=C(c1ccccn1)*; ΔPro = O=C(O)[C@@H]1C=CCN1; Dap = NC[C@H](N)C(=O)O; AEEA = NCCOCCOCC(=O)O

T1 sequence (Q16602 23-461): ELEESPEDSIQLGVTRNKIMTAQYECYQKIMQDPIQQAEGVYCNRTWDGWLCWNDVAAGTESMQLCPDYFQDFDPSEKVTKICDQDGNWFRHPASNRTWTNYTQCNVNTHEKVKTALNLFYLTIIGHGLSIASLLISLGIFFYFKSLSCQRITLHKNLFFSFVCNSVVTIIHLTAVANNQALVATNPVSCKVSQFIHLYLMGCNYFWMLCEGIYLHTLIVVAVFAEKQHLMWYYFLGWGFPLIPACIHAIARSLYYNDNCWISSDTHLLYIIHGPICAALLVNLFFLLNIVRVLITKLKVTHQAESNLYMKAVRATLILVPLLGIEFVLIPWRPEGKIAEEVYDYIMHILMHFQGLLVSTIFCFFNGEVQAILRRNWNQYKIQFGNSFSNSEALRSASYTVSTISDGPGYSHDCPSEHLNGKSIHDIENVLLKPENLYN
T1 sequence (O60896 24-148): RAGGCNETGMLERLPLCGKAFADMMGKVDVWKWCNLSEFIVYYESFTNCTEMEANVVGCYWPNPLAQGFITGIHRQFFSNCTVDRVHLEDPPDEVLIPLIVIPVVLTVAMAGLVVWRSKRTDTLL
T2 sequence (Q16602 23-461): as the sequence (Q16602 23-461) above
T2 sequence (O60894 27-148): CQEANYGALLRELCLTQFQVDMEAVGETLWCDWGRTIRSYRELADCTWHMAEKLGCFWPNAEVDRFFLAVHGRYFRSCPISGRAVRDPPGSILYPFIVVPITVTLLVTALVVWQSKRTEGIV

The term pIC50 denotes the negative decadic logarithm of the IC50, by convention in mol/L. With `CC(C)[C@@H]1NC(=O)[C@H](CC(=O)O)NC(=O)[C@H](CCCNC(=N)N)NC(=O)[C@@H](NC(=O)[C@H](Cc2ccc(O)cc2)NC(=O)[C@H](NC(=O)c2ccc(F)cc2)C(C)C)CSSC[C@@H](C(=O)N[C@@H](Cc2cccnc2)C(N)=O)NC(=O)[C@H](Cc2ccccc2)NC(=O)[C@@H]2CCCN2C(=O)CNC1=O` [Compound 1] ({Benzoyl(4-F)}-[dV]YCRDVGPFC[3Pal]-NH2; disulfide 3-10), in test [1], the Emax is 101%, the pIC50 was 7.28 and the “selectivity ratio CGRP/AM2” value was 362. In addition, in test [2], the Emax was 100% and the negative-log IC50 (pIC50) is 9.85.
Taken in the same sequence, the figures for `CC(C)[C@@H]1NC(=O)[C@H](CC(=O)O)NC(=O)[C@H](CCCNC(=N)N)NC(=O)[C@@H](NC(=O)[C@H](Cc2ccc(O)cc2)NC(=O)[C@H](NC(=O)c2ccc(F)cc2)C(C)C)CSSC[C@@H](C(=O)N[C@@H](Cc2cccnc2)C(N)=O)NC(=O)[C@H](Cc2cccnc2)NC(=O)[C@@H]2CCCN2C(=O)CNC1=O` [Compound 2, Bz(4-F)-D-Val-Tyr-c(Cys-Arg-Asp-Val-Gly-Pro-3Pal-Cys)-3Pal-NH2] ({Benzoyl(4-F)}-[dV]YCRDVGP[3Pal]C[3Pal]-NH2; disulfide 3-10) were 100%, 7.35, 555, 100% and 10.10.
Taken in the same sequence, the figures for `CC(C)[C@@H]1NC(=O)[C@H](CC(=O)O)NC(=O)[C@H](CCCNC(=N)N)NC(=O)[C@@H](NC(=O)[C@H](Cc2ccc(O)cc2)NC(=O)[C@H](NC(=O)c2ccccn2)C(C)C)CSSC[C@@H](C(=O)N[C@@H](Cc2cccnc2)C(N)=O)NC(=O)[C@H](Cc2cccnc2)NC(=O)[C@@H]2CCCN2C(=O)CNC1=O` [Compound 3, Picolinoyl-D-Val-Tyr-c(Cys-Arg-Asp-Val-Gly-Pro-3Pal-Cys)-3Pal-NH2] (Picolinoyl-[dV]YCRDVGP[3Pal]C[3Pal]-NH2; disulfide 3-10) were 101%, 7.46, 285, 100% and 9.92.
For `CC(C)[C@@H]1NC(=O)[C@H](CC(=O)O)NC(=O)[C@H](CCCNC(=N)N)NC(=O)[C@@H](NC(=O)[C@H](Cc2ccc(O)cc2)NC(=O)[C@H](NC(=O)c2ccc(F)cc2)C(C)C)CSSC[C@@H](C(=O)N[C@@H](Cc2cccnc2)C(N)=O)NC(=O)[C@H](Cc2ccccc2)NC(=O)[C@@H]2C=CCN2C(=O)CNC1=O` [Compound 4, Bz(4-F)-D-Val-Tyr-c(Cys-Arg-Asp-Val-Gly-Dhp-Phe-Cys)-3Pal-NH2] ({Benzoyl(4-F)}-[dV]YCRDVG[ΔPro]FC[3Pal]-NH2; disulfide 3-10) the same measures were 113%, 7.54, 172, 100% and 9.77.
On to `CC(C)[C@@H]1NC(=O)[C@H](CC(=O)O)NC(=O)[C@H](CCCNC(=N)N)NC(=O)[C@@H](NC(=O)[C@H](Cc2ccc(O)cc2)NC(=O)[C@H](NC(=O)c2ccc(F)cc2)C(C)C)CSSC[C@@H](C(=O)N[C@@H](Cc2cccnc2)C(N)=O)NC(=O)[C@H](Cc2cccc(CN)c2)NC(=O)[C@@H]2CCCN2C(=O)CNC1=O` [Compound 5, Bz(4-F)-D-Val-Tyr-c(Cys-Arg-Asp-Val-Gly-Pro-Phe(3-CH2NH2)-Cys)-3Pal-NH2] ({Benzoyl(4-F)}-[dV]YCRDVGP[Phe(3-CH2NH2)]C[3Pal]-NH2; disulfide 3-10), for which, in test [1], the Emax was 99%, the pIC50 is 7.59 and the “selectivity ratio CGRP/AM2” value is 192. Also, in test [2], the Emax was 100% and the negative logarithm of the IC50 (pIC50) is 9.89.
For `CC(C)[C@@H]1NC(=O)[C@H](CC(=O)O)NC(=O)[C@H](CN)NC(=O)[C@@H](NC(=O)[C@H](Cc2ccc(O)cc2)NC(=O)[C@H](NC(=O)c2ccc(F)cc2)C(C)C)CSSC[C@@H](C(=O)N[C@@H](Cc2cccnc2)C(N)=O)NC(=O)[C@H](Cc2cccc(C(N)=O)c2)NC(=O)[C@@H]2CCCN2C(=O)CNC1=O` [Compound 6, Bz(4-F)-D-Val-Tyr-c(Cys-Dpr-Asp-Val-Gly-Pro-Phe(3-Cbm)-Cys)-3Pal-NH2] ({Benzoyl(4-F)}-[dV]YC[Dap]DVGP[Phe(3-CONH2)]C[3Pal]-NH2; disulfide 3-10) the same measures were 113%, 7.00, 612, 100% and 9.77.
For `CC(C)[C@@H]1NC(=O)[C@H](CC(=O)O)NC(=O)[C@H](CN)NC(=O)[C@@H](NC(=O)[C@H](Cc2ccc(O)cc2)NC(=O)[C@H](NC(=O)c2ccc(F)cc2)C(C)C)CSSC[C@@H](C(=O)N[C@@H](Cc2cccnc2)C(N)=O)NC(=O)[C@H](Cc2ccc(O)cc2)NC(=O)[C@@H]2CCCN2C(=O)CNC1=O` [Compound 7, Bz(4-F)-D-Val-Tyr-c(Cys-Dpr-Asp-Val-Gly-Pro-Tyr-Cys)-3Pal-NH2] ({Benzoyl(4-F)}-[dV]YC[Dap]DVGPYC[3Pal]-NH2; disulfide 3-10) the same measures were 100%, 7.37, 334, 100% and 9.89.
On to `CCN(CC)CC[C@@H]1NC(=O)[C@@H](NC(=O)[C@H](Cc2ccc(O)cc2)NC(=O)[C@H](NC(=O)c2ccccn2)C(C)C)CSSC[C@@H](C(=O)N[C@@H](Cc2cccnc2)C(N)=O)NC(=O)[C@H](Cc2ccccc2)NC(=O)[C@@H]2CCCN2C(=O)CNC(=O)[C@H](C(C)C)NC(=O)[C@H](CC(=O)O)NC1=O` [Compound 8, Picolinoyl-D-Val-Tyr-c(Cys-Dab(Et2)-Asp-Val-Gly-Pro-Phe-Cys)-3Pal-NH2] (Picolinoyl-[dV]YC[X16]DVGPFC[3Pal]-NH2; disulfide 3-10), for which, in test [1], the Emax is 100%, the pIC50 is 7.52 and the “selectivity ratio CGRP/AM2” value is given as 347. In addition, in test [2], the Emax was 100% and the pIC50 was 10.05.
Take `CC(C)NCC[C@@H]1NC(=O)[C@@H](NC(=O)[C@H](Cc2ccc(O)cc2)NC(=O)[C@H](NC(=O)c2ccccn2)C(C)C)CSSC[C@@H](C(=O)N[C@@H](Cc2cccnc2)C(N)=O)NC(=O)[C@H](Cc2ccccc2)NC(=O)[C@@H]2CCCN2C(=O)CNC(=O)[C@H](C(C)C)NC(=O)[C@H](CC(=O)O)NC1=O` [Compound 9, Picolinoyl-D-Val-Tyr-c(Cys-Dab(iPr)-Asp-Val-Gly-Pro-Phe-Cys)-3Pal-NH2] (Picolinoyl-[dV]YC[Dab(iPr)]DVGPFC[3Pal]-NH2; disulfide 3-10): in test [1], the Emax was 106%, the pIC50 was 7.29 and the “selectivity ratio CGRP/AM2” value is recorded as 351. In addition, in test [2], the Emax is 100% and the pIC50 was 9.82.
With `CC(C)[C@@H]1NC(=O)[C@H](CC(=O)O)NC(=O)[C@H](CNC(=O)COCCOCCNC(=O)COCCOCCN)NC(=O)[C@@H](NC(=O)[C@H](Cc2ccc(O)cc2)NC(=O)[C@H](NC(=O)c2ccccn2)C(C)C)CSSC[C@@H](C(=O)N[C@@H](Cc2cccnc2)C(N)=O)NC(=O)[C@H](Cc2ccccc2)NC(=O)[C@@H]2CCCN2C(=O)CNC1=O` [Compound 10] (Picolinoyl-[dV]YC[Dap]([AEEA-AEEA])DVGPFC[3Pal]-NH2; disulfide 3-10), the Emax was 107% in test [1] and 100% in test [2].
Regarding `CC(C)[C@@H]1NC(=O)[C@H](CC(=O)O)NC(=O)[C@H](CCCNC(=N)N)NC(=O)[C@@H](NC(=O)[C@H](Cc2ccc(O)cc2)NC(=O)[C@H](NC(=O)c2ncco2)C(C)C)CSSC[C@@H](C(=O)N[C@@H](Cc2cccnc2)C(N)=O)NC(=O)[C@H](Cc2cccnc2)NC(=O)[C@@H]2CCCN2C(=O)CNC1=O` [Compound 11, Oxazole-2-carbonyl-D-Val-Tyr-c(Cys-Arg-Asp-Val-Gly-Pro-3Pal-Cys)-3Pal-NH2] (Oxazole2carbonyl-[dV]YCRDVGP[3Pal]C[3Pal]-NH2; disulfide 3-10), in test [1], the Emax is 108%, the pIC50 was 7.60 and the “selectivity ratio CGRP/AM2” value was 198. Moreover, in test [2], the Emax was 100% and the negative logarithm of the IC50 (pIC50) is 9.89.
